Measurements: PubChem BioAssay (NCI)
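Cells were grown in 96-well plates and exposed to each compound for 48 hours at five concentrations; endpoints were interpolated linearly between bracketing concentrations, or set to the highest concentration if not reached. At the GI50, growth is halved. TGI denotes the concentration required for complete inhibition of growth.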

System: MDA-MB-468 breast
Experiment: DTP human tumour cell line panel, 48 h

| SMILES | GI50 | TGI |
| --- | --- | --- |
| CSc1ccccc1C#C/C=C\C#Cc1ccccc1N1CCCC1=O | 1.89 µM | 13.8 µM |
| C[C@@H](CS(C)(=O)=O)Nc1ncc2cc(Oc3ccc(F)cc3F)c(=O)n(C)c2n1 | > 25 µM | > 25 µM |
| COc1cc2c3c(n(CCCNC4CCCCC4)c(=O)c2cc1OC)-c1cc2c(cc1C3=O)OCO2 | 5.65 µM | 15.7 µM |
| C=C(CNCCO)[C@@H]1CC[C@]2(CO)CC[C@]3(C)[C@H](CC[C@@H]4[C@@]5(C)CCC(N)C(C)(C)[C@@H]5CC[C@]43C)[C@@H]12 (some centres not stated) | 1.67 µM | 3.53 µM |
| CC(=O)[O][Hg][c]1c(N)c(C)cc(C)c1F | 1.34 µM | 2.74 µM |
| Cc1cc(=O)n2[nH]c(-c3ccc(C(C)(C)C)cc3)cc2n1 | 3.38 µM | 40.6 µM |
| CC(C)c1ccc(C(C)C(=O)N(CC2=C(C(C)c3ccccn3)c3ccccc3C2)C(C)C)cc1 (configuration not stated) | 2.78 µM | 41.7 µM |
| COc1c2ccoc2c(/C=C/C=O)c2oc(-c3ccccc3)cc(=O)c12 | 7.02 µM | 22.2 µM |
| Cc1nc2c(nc1C)C(=O)c1ccccc1C2=O | 1.5 µM | 6.04 µM |
| Clc1ccc2c(N/N=C/c3c[nH]c4ccccc34)ccnc2c1 | 1.01 µM | 2.45 µM |
| Cc1cnc(NC(=O)C(Cc2ccccc2)NC(=O)c2ccccc2)s1 (configuration not stated) | 15.8 µM | 35.7 µM |
| CCOc1ccccc1-n1c(CN2CCN(C(=O)COc3ccc(CNCCCCCCN4C5CCCC4CC(OC(=O)Nc4cc(C)ccc4OC)C5)cc3)CC2)nc2ccccc2c1=O (configuration not stated) | 0.786 µM | 2.42 µM |
| Cc1cc2nc(C(Cl)Cl)nc(-c3ccc(Cl)cc3)n2n1 | 0.299 µM | 1.12 µM |
| COc1cc(C(=O)/C=C/c2sc(Cl)nc2Cl)cc(OC)c1OC | 1.83 µM | 3.7 µM |
| COc1cc2nc(-c3ccc(C(F)(F)F)cc3)cc(OCCCN3CCC(O)CC3)c2cc1OC | 1.63 µM | 11.3 µM |
| NC(CSC(c1ccccc1)(c1ccccc1)c1ccc2c(c1)OCO2)C(=O)O (configuration not stated) | 0.254 µM | 0.672 µM |
| COc1cc2c(c(OC)c1O)C(=O)C(OC)C(c1ccc(O)c(O)c1)O2 (configuration not stated) | 0.464 µM | 33.3 µM |
| CNC(=O)c1ccccc1Nc1nc(Nc2ccc(N3CCOCC3)cc2OC)ncc1Cl | 1.49 µM | 4.32 µM |
| Fc1ccc(Nc2ncnc3ccc(-c4cnc5[nH]ccc5c4)cc23)cc1Cl | 0.115 µM | 0.575 µM |
| O=C(CCl)N1c2ccccc2Oc2ccc3ccccc3c21 | 0.973 µM | 2.45 µM |
| Clc1cccc(Cc2cn3cc(-c4ccccc4)nc3s2)c1Cl | 6.28 µM | > 100 µM |

| SMILES | GI50 | TGI |
| --- | --- | --- |
| O=C1/C(=C/c2ccc([N+](=O)[O-])cc2)COc2ccc(O)c(O)c21 | 1.87 µM | 5.55 µM |
| Nc1cc2nc3ccccc3sc-2cc1=O | 3.74 µM | 16.1 µM |
| COc1ccc(-c2cc(-c3ccc(Nc4nc(Nc5ccccc5)nc(Nc5ccc(Cl)cc5)n4)cc3)nc(N)c2C#N)cc1 | 1.15 µM | 3.05 µM |
| CCCCCCCC(=O)SCC/C=C/[C@@H]1CC(=O)NCc2cccc(n2)C2=N[C@@](C)(CS2)C(=O)N[C@@H](C(C)C)C(=O)N1 | 0.535 µM | > 33.3 µM |
| COc1cc(/C=C/c2cc(/C=C/c3ccc(O)c(OC)c3)n(C(=O)Nc3ccc(F)cc3)n2)ccc1O | 1.4 µM | 5.76 µM |
| CN(C)CCCNC1=C(Cl)C(=O)c2ccccc2C1=O | 1.59 µM | 3.33 µM |
| Oc1ccc(Cl)cc1-c1cc(-c2ccccc2Cl)[nH]n1 | 1.96 µM | 7.93 µM |
| COC(=O)Nc1nc2ccc(S(=O)c3ccccc3)cc2[nH]1 (configuration not stated) | 1.94 µM | 8.29 µM |
| COc1ccc2c(c1)C(=O)/C(=C/c1ccc(OCC(=O)Nc3nccs3)cc1)O2 | 0.0181 µM | 0.0392 µM |
| Cn1ccnc1C(=O)/C=C/c1ccc(CC(=O)Nc2ccc(Br)cc2)cc1 | 2.7 µM | 6.62 µM |
| CNC(=O)c1cc(Oc2ccc3nc(NC(=O)Nc4ccc(Cl)c(C(F)(F)F)c4)sc3c2)ccn1 | 1.36 µM | 4.1 µM |
| O=C1c2ccccc2C(=O)c2sc(Nc3cccc(Cl)c3)nc21 | 1.77 µM | 3.89 µM |
| O=C(NCCNc1nccc(-c2c(-c3cccc(O)c3)nc3sccn23)n1)c1ccccc1O | 2.64 µM | 21 µM |
| NC1CCC(Nc2nc(NCc3ccc(-c4ccco4)nc3)c3ncn(C4CCCC4)c3n2)CC1 (configuration not stated) | 0.00841 µM | 0.0349 µM |
| O=c1n(CC2CO2)c(=O)n(CC2CO2)n1CC1CO1 (configuration not stated) | 2.29 µM | 16.8 µM |
| O=C(Nc1ccc(I)cc1)c1cc([N+](=O)[O-])ccc1O | 3.99 µM | 39.4 µM |
| CCOC(=O)Nc1nc2ccc(OCC)cc2s1 | 2.08 µM | > 100 µM |
| O=C(Nc1ccc(F)cc1F)c1cc(I)ccc1O | 2.55 µM | 6.88 µM |
| O=C(CN1CCN(c2cc3c(cc2F)c(=O)c(C(=O)N/N=C/c2ccccc2O)cn3C2CC2)CC1)N/N=C\c1ccccc1O | 0.599 µM | 2.96 µM |
| Clc1ccc2oc3c(NCCCN4CCOCC4)c4ccccc4nc3c2c1 | 1.49 µM | 3.5 µM |
